From patent US7713994B2 (Wyeth LLC, priority 2005, dated 2010)
Where two headings read alike, the source gives them in different places.

Key:
MCF-7 = assay: Cytotoxicity assay (SRB), MCF-7; format: cell-based; details: Homo sapiens, MCF7, 72 h, MCF-7 cells, SRB, read-out: In Vitro Cellular Activity IC50 MCF-7
Procedure: (§1) BT474, HCT-116, LoVo and MCF-7 were maintained under 7% CO2 in RPMI 1640 medium supplemented with 10% fetal bovine serum and 50 µg/ml gentamicin.
(§2) Cells were plated in 96-well microtiter dishes (12000 cells/well for BT474, 4000 cells/well for HCT-116, 6000 cells/well for LoVo and 6000 cells/well for MCF-7) in RPMI 1640 medium containing 5% fetal bovine serum and 50 µg/ml gentamicin. The cells were allowed to incubate overnight at 37° C., 7% CO2. Compound dilutions were prepared using the same medium. HCT-116, LoVo and MCF-7 cells were cultured for three days and BT474 cells were cultured for 6 days, in the presence of each compound dilution. Untreated cells were included as controls. The percentage of surviving cells was determined using a protein binding dye (sulforhodamineB, SRB) assay. Cellular protein was precipitated in each well by the addition of 0.05 ml of 50% cold trichloroacetic acid (TCA). After 1 hour, the plates were washed extensively in dH2O and dried. The sulforhodamineB dye solution (0.08 mL of 0.4% SRB in 1% acetic acid) was added to each well, kept at room temperature for ten minutes, then washed in 1% acetic acid and dried. The dye was dissolved in 10 mM Tris-HCl (150 uL) and the absorbency read at 540 nm.

BT474 = assay: Cytotoxicity assay (SRB), BT474; format: cell-based
Procedure: as §1, §2

HCT-116 = assay: Cytotoxicity assay (SRB), HCT-116; format: cell-based; details: Homo sapiens, HCT-116, 72 h, HCT116 cells, SRB, read-out: In Vitro Cellular Activity IC50 HCT116
Procedure: as §1, §2

LoVo = assay: Cytotoxicity assay (SRB), LoVo; format: cell-based; details: Homo sapiens, LoVo, 72 h, LoVo cells, SRB, read-out: In Vitro Cellular Activity IC50 LOVO
Procedure: as §1, §2

cyclin D1/cdk 4 enzyme = biological target: T1, cyclin D1/cdk 4 enzyme (Homo sapiens, UniProt P11802); assay: CDK4 ELISA kinase assay (phospho-Rb ser 795 detection); format: biochemical; details: In Vitro Enzyme Assay, cyclin D1/cdk 4, read-out: CDK4 IC50
T1 construct: made in house; host or cells: Sf9 insect cells, recombinant baculovirus
T1 sequence (P11802 whole entry, species assumed): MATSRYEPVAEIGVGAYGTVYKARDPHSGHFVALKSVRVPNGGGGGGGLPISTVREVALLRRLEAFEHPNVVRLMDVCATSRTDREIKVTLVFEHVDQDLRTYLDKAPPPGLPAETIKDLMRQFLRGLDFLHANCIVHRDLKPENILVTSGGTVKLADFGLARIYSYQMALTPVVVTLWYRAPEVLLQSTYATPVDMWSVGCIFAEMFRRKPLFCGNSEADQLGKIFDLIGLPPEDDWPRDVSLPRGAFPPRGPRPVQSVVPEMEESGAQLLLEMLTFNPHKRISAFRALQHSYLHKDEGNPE
T1 sequence (P24385 whole entry partner, species assumed): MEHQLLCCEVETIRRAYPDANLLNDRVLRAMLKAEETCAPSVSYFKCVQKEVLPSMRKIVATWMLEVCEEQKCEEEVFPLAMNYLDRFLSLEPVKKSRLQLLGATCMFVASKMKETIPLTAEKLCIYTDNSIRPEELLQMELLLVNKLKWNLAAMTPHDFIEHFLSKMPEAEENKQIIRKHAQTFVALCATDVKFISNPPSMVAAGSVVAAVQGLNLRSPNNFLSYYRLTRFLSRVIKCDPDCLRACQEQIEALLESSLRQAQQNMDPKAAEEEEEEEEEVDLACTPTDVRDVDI
Summary of the method: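 Partially purified Sf9-expressed cyclin D1/CDK4, cyclin E/CDK2 or cyclin B/CDK1 phosphorylated plate-bound GST-Rb C-terminal fragment with 200 μM ATP at 30° C for 1 h.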

[1] = Homo sapiens, BT-474, 144 h, BT474 cells, 6 days, SRB; read-out: In Vitro Cellular Activity IC50 BT474

With CN1CCN(c2ccc(N/C=C3\C(=O)NC(C)(C)c4ccc(-c5ccoc5)cc43)cc2)CC1 [Example 458, 6-Furan-3-yl-1,1-dimethyl-4-{[4-(4-methyl-piperazin-1-yl)-phenylamino]-methylene}-1,4-dihydro-2H-isoquinolin-3-one] the IC50 (MCF-7; 3 days) was 4.2 µM, the IC50 (BT474; [1]) was 3.5 µM and the IC50 (HCT-116; 3 days) was 2.7 µM. For the same compound, the IC50 (LoVo; 3 days) was 1.2 µM.

Compound CC(C)(C)OC(=O)N1CCCC1c1ccc(N/C=C2\C(=O)NC(=O)c3ccc(I)cc32)cc1 (centres unmarked) [Example 461, 2-{4-[(6-Iodo-1,3-dioxo-2,3-dihydro-1H-isoquinolin-4-ylidenemethyl)-amino]-phenyl}-pyrrolidine-1-carboxylic acid tert-butyl ester] has an IC50 (MCF-7; 3 days) of 23.3 µM, an IC50 (BT474; [1]) of 7.7 µM and an IC50 (HCT-116; 3 days) of 22.8 µM. For the same compound, the IC50 (LoVo; 3 days) was 24.1 µM.

For COc1cnc(CN/C=C2\C(=O)NC(=O)c3ccc(I)cc32)nc1O [Example 479, 4-{[(4-Hydroxy-5-methoxy-pyrimidin-2-ylmethyl)-amino]-methylene}-6-iodo-4H-isoquinoline-1,3-dione], the IC50 (MCF-7; 3 days) was > 50 µM, the IC50 (BT474; [1]) was 43 µM and the IC50 (HCT-116; 3 days) was > 50 µM. The IC50 (LoVo; 3 days) was > 50 µM.

O=C1NC(=O)c2ccc(I)cc2/C1=C/NCc1ccc(-c2ccccn2)c(O)c1 [Example 509, 4-[(3-Hydroxy-4-pyridin-2-yl-benzylamino)-methylene]-6-iodo-4H-isoquinoline-1,3-dione] was tested, and the IC50 (MCF-7; 3 days) was 0.54 µM, the IC50 (BT474; [1]) was 0.13 µM and the IC50 (HCT-116; 3 days) was 0.25 µM. The IC50 (LoVo; 3 days) was 0.19 µM.

Compound O=C1NC(=O)c2ccc(I)cc2/C1=C/NCc1ccc(-c2ccncc2)c(O)c1 [Example 511, 4-[(3-Hydroxy-4-pyridin-4-yl-benzylamino)-methylene]-6-iodo-4H-isoquinoline-1,3-dione] has an IC50 (MCF-7; 3 days) of 1.5 µM, an IC50 (BT474; [1]) of 2.5 µM and an IC50 (HCT-116; 3 days) of 2.3 µM. The IC50 (LoVo; 3 days) was 2.5 µM.

With N#CCc1ccc(NC=C2C(=O)NC(=O)c3ccc(-c4cc5ccccc5o4)cc32)cc1 [Example 626, {4-[(6-Benzofuran-2-yl-1,3-dioxo-2,3-dihydro-1H-isoquinolin-4-ylidenemethyl)-amino]-phenyl}-acetonitrile] the IC50 (cyclin D1/cdk 4 enzyme) was 3.7 µM, the IC50 (MCF-7; 3 days) was 34.1 µM and the IC50 (BT474; [1]) was > 50 µM. For the same compound, the IC50 (HCT-116; 3 days) was > 50 µM and the IC50 (LoVo; 3 days) was > 50 µM.

Compound N#CCc1ccc(NC=C2C(=O)NC(=O)c3ccc(-c4cc5ccccc5s4)cc32)cc1 [Example 627, {4-[(6-Benzo[b]thiophen-2-yl-1,3-dioxo-2,3-dihydro-1H-isoquinolin-4-ylidenemethyl)-amino]-phenyl}-acetonitrile] has an IC50 (cyclin D1/cdk 4 enzyme) of 10.4 µM, an IC50 (MCF-7; 3 days) of 7.3 µM and an IC50 (BT474; [1]) of 4.3 µM. The IC50 (HCT-116; 3 days) was > 50 µM and the IC50 (LoVo; 3 days) was > 50 µM.

N#CCc1ccc(NC=C2C(=O)NC(=O)c3ccc(-c4ccc5[nH]ccc5c4)cc32)cc1 [Example 629, (4-{[6-(1H-Indol-5-yl)-1,3-dioxo-2,3-dihydro-1H-isoquinolin-4-ylidenemethyl]-amino}-phenyl)-acetonitrile] was tested, and the IC50 (cyclin D1/cdk 4 enzyme) was 5.5 µM, the IC50 (MCF-7; 3 days) was 50 µM and the IC50 (BT474; [1]) was > 50 µM. For the same compound, the IC50 (HCT-116; 3 days) was > 50 µM and the IC50 (LoVo; 3 days) was > 50 µM.

NS(=O)(=O)c1ccc(CNC=C2C(=O)NC(=O)c3ccc(-c4ccc5ccccc5c4)cc32)cc1 [Example 632, 4-{[(6-Naphthalen-2-yl-1,3-dioxo-2,3-dihydro-1H-isoquinolin-4-ylidenemethyl)-amino]-methyl}-benzenesulfonamide] was tested, and the IC50 (cyclin D1/cdk 4 enzyme) was 3.1 µM, the IC50 (MCF-7; 3 days) was 17.3 µM and the IC50 (BT474; [1]) was > 50 µM. The IC50 (HCT-116; 3 days) was > 50 µM and the IC50 (LoVo; 3 days) was 44.6 µM.

NS(=O)(=O)c1ccc(CNC=C2C(=O)NC(=O)c3ccc(-c4cc5ccccc5o4)cc32)cc1 [Example 634, 4-{[(6-Benzofuran-2-yl-1,3-dioxo-2,3-dihydro-1H-isoquinolin-4-ylidenemethyl)-amino]-methyl}-benzenesulfonamide] was tested, and the IC50 (cyclin D1/cdk 4 enzyme) was 9.9 µM, the IC50 (MCF-7; 3 days) was > 50 µM and the IC50 (BT474; [1]) was 47.8 µM. It also gave an IC50 (HCT-116; 3 days) of 19.1 µM and an IC50 (LoVo; 3 days) of 8.5 µM.

For NS(=O)(=O)c1ccc(CNC=C2C(=O)NC(=O)c3ccc(-c4csc5ccccc45)cc32)cc1 [Example 636, 4-{[(6-Benzo[b]thiophen-3-yl-1,3-dioxo-2,3-dihydro-1H-isoquinolin-4-ylidenemethyl)-amino]-methyl}-benzenesulfonamide], the IC50 (cyclin D1/cdk 4 enzyme) was 3.4 µM, the IC50 (MCF-7; 3 days) was 18.4 µM and the IC50 (BT474; [1]) was 39.7 µM. The IC50 (HCT-116; 3 days) was 31.2 µM and the IC50 (LoVo; 3 days) was 15.8 µM.

Compound O=C1NC(=O)c2ccc(-c3csc4ccccc34)cc2C1=CNCc1ccc(O)c(O)c1 [Example 645, 6-Benzo[b]thiophen-3-yl-4-[(3,4-dihydroxy-benzylamino)-methylene]-4H-isoquinoline-1,3-dione] has an IC50 (cyclin D1/cdk 4 enzyme) of 2.2 µM, an IC50 (MCF-7; 3 days) of 8.8 µM and an IC50 (BT474; [1]) of 15.5 µM. The IC50 (HCT-116; 3 days) was 9 µM and the IC50 (LoVo; 3 days) was 7.2 µM.

With N#CCc1ccc(NC=C2C(=O)NC(=O)c3ccc(C=Cn4ccnc4)cc32)cc1 [Example 651, (4-{[6-(2-Imidazol-1-yl-vinyl)-1,3-dioxo-2,3-dihydro-1H-isoquinolin-4-ylidenemethyl]-amino}-phenyl)-acetonitrile] the IC50 (cyclin D1/cdk 4 enzyme) was 3 µM, the IC50 (MCF-7; 3 days) was 37.1 µM and the IC50 (BT474; [1]) was > 50 µM. For the same compound, the IC50 (HCT-116; 3 days) was > 50 µM and the IC50 (LoVo; 3 days) was > 50 µM.

NS(=O)(=O)c1ccc(CNC=C2C(=O)NC(=O)c3ccc(C=Cc4ccccn4)cc32)cc1 [Example 652, 4-({[1,3-Dioxo-6-(2-pyridin-2-yl-vinyl)-2,3-dihydro-1H-isoquinolin-4-ylidenemethyl]-amino}-methyl)-benzenesulfonamide] showed an IC50 (cyclin D1/cdk 4 enzyme) of 2.4 µM, an IC50 (MCF-7; 3 days) of 27 µM and an IC50 (BT474; [1]) of 28.5 µM. The IC50 (HCT-116; 3 days) was > 50 µM and the IC50 (LoVo; 3 days) was > 50 µM.

NS(=O)(=O)c1ccc(CNC=C2C(=O)NC(=O)c3ccc(C=Cc4ccccc4)cc32)cc1 [Example 654, 4-{[(1,3-Dioxo-6-styryl-2,3-dihydro-1H-isoquinolin-4-ylidenemethyl)-amino]-methyl}-benzenesulfonamide] gave an IC50 (cyclin D1/cdk 4 enzyme) of 2 µM, an IC50 (MCF-7; 3 days) of 10.7 µM and an IC50 (BT474; [1]) of 3.1 µM. It also gave an IC50 (HCT-116; 3 days) of 2.4 µM and an IC50 (LoVo; 3 days) of 13.1 µM.

For NS(=O)(=O)c1ccc(CNC=C2C(=O)NC(=O)c3ccc(C=CC4CCCCC4)cc32)cc1 [Example 656, 4-({[6-(2-Cyclohexyl-vinyl)-1,3-dioxo-2,3-dihydro-1H-isoquinolin-4-ylidenemethyl]-amino}-methyl)-benzenesulfonamide], the IC50 (cyclin D1/cdk 4 enzyme) was 4.8 µM, the IC50 (MCF-7; 3 days) was 12.2 µM and the IC50 (BT474; [1]) was 13.4 µM. For the same compound, the IC50 (HCT-116; 3 days) was 12.6 µM and the IC50 (LoVo; 3 days) was 11.7 µM.

Work on O=C1NCc2cc(Cl)ccc2C1=CNc1cccc(O)c1 [Example 856, 7-Chloro-4-[(3-hydroxy-phenylamino)-methylene]-1,4-dihydro-2H-isoquinolin-3-one] yielded an IC50 (MCF-7; 3 days) of 3.8 µM, an IC50 (BT474; [1]) of 5.6 µM and an IC50 (HCT-116; 3 days) of 12.2 µM. For the same compound, the IC50 (LoVo; 3 days) was 13.5 µM.

Compound Cc1ccc2c(c1)CNC(=O)C2=CNc1ccc(N2CCOCC2)cc1 [Example 858, 7-Methyl-4-[(4-morpholin-4-yl-phenylamino)-methylene]-1,4-dihydro-2H-isoquinolin-3-one] has an IC50 (MCF-7; 3 days) of 34.7 µM, an IC50 (BT474; [1]) of 34.3 µM and an IC50 (HCT-116; 3 days) of 37.7 µM. It also gave an IC50 (LoVo; 3 days) of 39 µM.

In the case of O=C1NCc2ccccc2C1=CNc1cccc(O)c1 [Example 859, 4-[(3-Hydroxy-phenylamino)-methylene]-1,4-dihydro-2H-isoquinolin-3-one], the IC50 (MCF-7; 3 days) is reported as 20.6 µM, the IC50 (BT474; [1]) is reported as 31.2 µM and the IC50 (HCT-116; 3 days) is reported as 40.4 µM. The IC50 (LoVo; 3 days) was 40 µM.

Work on O=C1NCc2ccccc2C1=CNc1ccc(N2CCCCC2)cc1 [Example 860, 4-[(4-Piperidin-1-yl-phenylamino)-methylene]-1,4-dihydro-2H-isoquinolin-3-one] yielded an IC50 (MCF-7; 3 days) of 40 µM, an IC50 (BT474; [1]) of 35.2 µM and an IC50 (HCT-116; 3 days) of 33 µM. For the same compound, the IC50 (LoVo; 3 days) was 36.1 µM.

COC(=O)Oc1cc(CN/C=C2\C(=O)NC(=O)c3ccc(Br)cc32)ccc1OC [compound 83, 5-({[(Z)-(6-Bromo-1,3-dioxo-2,3-dihydroisoquinolin-4(1H)-ylidene)methyl]amino}methyl)-2-methoxyphenyl methyl carbonate] showed an IC50 (MCF-7; three days) of 29.9 µM, an IC50 (BT474; Homo sapiens, BT-474, 144 h, BT474 cells, SRB, 6 days; read-out: In Vitro Cellular Activity IC50 BT474) of 3.2 µM and an IC50 (HCT-116; three days) of 4.5 µM. The IC50 (LoVo; three days) was 2.6 µM.
